Reference: US5756505A, “N-acylpiperazine derivative, antibacterial drug and anti-ulcer drug” (Shiseido Co., Ltd., priority 1995, dated 1998)
Read-outs that look alike come from different tables or passages of the source.

Columns and labels:
[1] = test system: isolated gastric fundic gland; experiment: CAP: Acid Secretion Inhibition Test In Vitro ([14C]-aminopyrine uptake); format: cell-based, rabbit (male Japanese White); details: for inhibition at 10 µM: Oryctolagus cuniculus, read-out: CAP: acid secretion inhibitory rate
Procedure: CAP: Acid Secretion Inhibition Test In Vitro
The acid secretion inhibitory activity in a cell level is studied. It can also be used for studying the mechanism of the effect. […]
ii-a) Preparation of isolated gastric fundus gland suspension
First, an isolated gastric fundic gland sample was prepared. Namely, a male Japanese White rabbit (2.5 to 3 kg) was anesthetized to death with Nembutal™ and then the abdomen was incised. Immediately thereafter, the stomach was removed and, after its pyloric and cardiac antrum were severed, incised along its greater curvature into two sheets. The gastric contents adhering to the mucosal surface was washed out with ice-cooled PBS (-) and then carefully washed therein. The gastric wall was spread on a cork board with its mucosal surface facing up and the feed and mucus thereon were completely removed with sterile gauze. The mucosa was separated therefrom by a spatula and then collected in ice-cooled PBS (-). After being washed twice with PBS (-), the mucosa was minced into 2-3mm^3 pieces by scissors. These pieces were further washed twice with a nutrient solution. The nutrient solution comprises 132.4 mM of NaCl, 5.4 mM of KCl, 5 mM of Na2 HPO4 ·12H2 O, 1 mM of NaH2 PO4 ·2H2 O, 1.2 mM of MgSO4, 1 mM of CaCl2, 25 mM of HEPES, 2mg/ml of glucose, and 1 mg/ml of BSA. Into 70 ml of the nutrient solution containing 1 mg/ml of collagenase, minced mucosal pieces were dispersed and intensely stirred in a conical flask with a stirrer at 37° C. for 40 to 60 minutes. During this period, 100% O2 was sprayed on the nutrient solution surface and the pH was appropriately measured such that it was immediately adjusted to pH 7.4, when the value was therebelow, with a base. The nutrient solution was added to the reaction solution so as to attain the total amount of about 200 ml. After being filtered through a mesh, the suspension was divisionally introduced into 50 ml centrifuge tubes and left for 15 minutes such that gastric fundic gland was deposited. The supernatant was repeatedly removed by an aspirator, dispersed in the nutrient solution, and then left such that the gastric fundic gland was washed three times. At this time, without using a pipette, the suspension was alternately introduced into two centrifuge tubes so as to effect dispersion. The number of cells was counted under microscope and adjusted to 1.6×10^6 cells/ml. […]
ii-b) [^14 C]-aminopyrine uptake test
Then, [^14 C]-aminopyrine uptake test was performed. After an Eppendorf tube was weighed, 10 μl (final concentration: 10^-5 M) of histamine dissolved in the above-mentioned nutrient solution, 10 μl (final concentration: 10^-5 M) of the test compound dissolved in DMSO, and 10 μl (final concentration: 0.05 μCi/ml) of [^14 C]-aminopyrine diluted with the nutrient solution were introduced therein and then 970 μl of the isolated gastric fundic gland suspension prepared above were added thereto. Subsequently, this mixture was shaken at 37° C. for 40 minutes at 125 cycles/minute. After being centrifuged for 30 minutes 200 μl of its supernatant was collected into a mini-vial, while the rest was removed by an aspirator. The gland pellet was completely dried as the tube with its lid being opened was kept for one night in a drying oven at 80° C. and then the lid was closed and the weight was determined at room temperature. Then 100 μl of 1N KOH were added thereto and the tube with its lid being closed was treated at 60° C. for 1 to 2 hours so as to dissolve the pellet. Then, the contents thereof were transferred to a mini-vial. Into the mini-vial containing the supernatant or gland pellet, 4 ml of Atomlite™ were added and then the radioactivity was measured by a liquid scintillation counter. Here, after the radioactivity of the gland pellet was corrected by using a sample in which 20 mM of NaSCN were added so as to cancel the hydrogen ion concentration gradient, the integration ratio of aminopyrine specifically trapped by the gland pellet was calculated. […]

[2] = test system: gastric mucosa; experiment: PD: Gastric Mucosal Integrity Test; format: in vivo, rat (male Crj:SD); details: rat, 100 mg/kg into ex vivo chamber, 60 minutes
Procedure: PD: Gastric Mucosal Integrity Test
In this case, since the sample compound has a necrotizing effect, it is inappropriate as an anti-ulcer medicament.
Therefore, the gastric mucosal potential difference (PD), which reflects the integrity of the gastric mucosa, is measured so as to confirm that the sample compound has no damasing effect on gastric mucosa, which is toxicity at gastric mucosal level.
Male Crj:SD rats (7 to 8-week-old) was fasted overnight, but allowed free access to water, and then, under urethane anesthesia (1.25 g/kg, i.p.), fixed to a cork board on its back. The abdomen of each rat was incised, and a small incision was made in the forestomach. Then, the inside of the stomach was washed with physiological saline heated at 37° C. From the forestomach, along the greater curvature thereof, the stomach was incised without damaging blood vessels. After the height of the cork board was adjusted on a jack, the stomach was mounted on ex vivo chamber. The area of the gastric mucosa exposed to the inside of this chamber was 2.5 cm^2. The inside of the chamber was perfused with physiological saline warmed at 37° C. by micro tube pump. By using an agar bridge containing 3M KCl, the potential difference between the chamber and the abdominal cavity was measured by a PD meter. Here, the rectal temperature was measured to control the body temperature during the experiment. After the PD was sufficiently stabilized, the perfusate was stopped and then 100 mg/10 ml/kg of the sample compound dissolved or suspended in an aqueous solution of 0.5% sodium carboxymethyl cellulose or 0.05% Tween 80 were administered into the chamber, while PD was recorded for 60 minutes. To a control, the vehicle was administered.
The change in PD during 60 minutes after the administration of 100 mg/kg of the sample compound was collectively studied and, with reference to the positive control, classified into 5 levels as follows:
5: Same as the control with no recognizable damage at all.
3: Though a weak decrease in PD and a possibility of a weak mucosal damage is recognized, there is no substantial problem.
2: Medium degree of decrease in PD is found and a mucosal damage is recognized.
1: Heavy degree of decrease in PD is found and a remarkable mucosal damage is recognized.

[3] = final concentration 10^-5 M, histamine 10^-5 M, rabbit gastric fundic gland

| Structure (SMILES) | inhibition at 10 µM [1, 3] [%] | PD: change in gastric mucosal potential difference, level [2] | CAP: acid secretion inhibitory rate [1, 3] [%] | inhibition at 10 µM [1] [%] |
| --- | --- | --- | --- | --- |
| CC(C)CN1CCN(C(=O)c2ccc(OCc3ccc(F)cc3)cc2)CC1.Cl [Example 2, 1-[4-(4-fluorobenzyloxy)benzoyl]-4-isobutylpiperazine hydrochloride] | 99 | 2 |  |  |
| CC(C)CN1CCN(C(=O)c2ccc(OCc3ccccc3)cc2)CC1 [Example 3, 1-(4-benzyloxybenzoyl)-4-isobutylpiperazine] | 85 | 5 |  |  |
| C=C(C)Cc1cc(C(=O)N2CCN(CC(C)C)CC2)ccc1OCc1ccc(F)cc1.Cl [Example 4, 1-[4-(4-fluorobenzyloxy)-3-methallylbenzoyl]-4-isobutylpiperazine hydrochloride] | 94 |  |  |  |
| CC(C)CN1CCN(C(=O)c2ccc(OCc3ccc(F)cc3)cc2)CC1 [Example 5, 1-[4-(4-fluorobenzyloxy)benzoyl]-4-isobutylpiperazine] |  |  | 96 |  |
| CC(C)Cc1cc(C(=O)N2CCN(C(=O)C(C)C)CC2)ccc1OCc1ccc(F)cc1 [Example 6, 1-[4-(4-fluorobenzyloxy)-3-isobutylbenzoyl]-4-isobutyrylpiperazine] | 57 |  |  |  |
| CC(C)CN1CCN(C(=O)c2ccc(OCc3ccc(F)cc3)c([N+](=O)[O-])c2)CC1.Cl [Example 8, 1-[4-(4-fluorobenzyloxy)-3-nitrobenzoyl]-4-isobutylpiperazine hydrochloride] | 100 | 2 |  |  |
| CC(C)Cc1cc(C(=O)N2CCN(CCO)CC2)ccc1OCc1ccc(F)cc1 [Example 9, 1-[4-(4-fluorobenzyloxy)-3-isobutylbenzoyl]-4-(2-hydroxyethyl)piperazine] | 100 | 2 |  |  |
| Cc1cccc(COc2ccc(C(=O)N3CCN(CC(C)C)CC3)cc2CC(C)C)c1F.Cl [Example 12, 1-[4-(2-fluoro-3-methylbenzyloxy)-3-isobutylbenzoyl]-4-isobutylpiperazine hydrochloride] | 100 | 2 |  |  |
| CC(C)Cc1cc(C(=O)N2CCN(CC(C)C)CC2)ccc1OCc1ccc([N+](=O)[O-])cc1.Cl [Example 13, 1-isobutyl-4-[3-isobutyl-4-(4-nitrobenzyloxy)benzoyl]piperazine hydrochloride] |  | 2 |  |  |
| COc1ccc(COc2ccc(C(=O)N3CCN(CC(C)C)CC3)cc2CC(C)C)cc1 [Example 14, 1-isobutyl-4-[3-isobutyl-4-(4-methoxybenzyloxy)benzoyl]piperazine] | 100 |  |  |  |
| CC(C)Cc1cc(CC(=O)N2CCN(CC(C)C)CC2)ccc1OCc1ccccc1 [Example 15, 1-(4-benzyloxy-3-isobutylphenylacetyl)-4-isobutylpiperazine] |  |  |  | 99 |
| CC(C)Cc1cc(C(=O)N2CCN(CC(C)C)CC2)ccc1OCc1ccccc1 [Example 16, 1-(4-benzyloxy-3-isobutylbenzoyl)-4-isobutylpiperazine] | 98 | 5 |  |  |
| CC(C)Cc1cc(C(=O)N2CCN(CC(C)C)CC2)ccc1OCc1ccc(Cl)cc1 [Example 17, 1-[4-(4-chlorobenzyloxy)-3-isobutylbenzoyl]-4-isobutylpiperazine] | 99 | 4 |  |  |
| CC(C)Cc1cc(C(=O)N2CCN(CC(C)C)CC2)ccc1OCc1ccccc1F [Example 18, 1-[4-(2-fluorobenzyloxy)-3-isobutylbenzoyl]-4-isobutylpiperazine] | 100 | 3 |  |  |
| CC(C)Cc1cc(C(=O)N2CCN(CC(C)C)CC2)ccc1OCc1ccccc1F.Cl [Example 19, 1-[4-(2-fluorobenzyloxy)-3-isobutylbenzoyl]-4-isobutylpiperazine hydrochloride] |  | 2 | 95 |  |
| CC(C)Cc1cc(CN2CCN(CC(C)C)CC2)ccc1OCc1ccc(F)cc1.Cl.Cl [Example 20, 1-[4-(4-fluorobenzyloxy)-3-isobutylbenzyl]-4-isobutylpiperazine dihydrochloride] | 100 | 2 |  |  |
| CC(C)Cc1cc(C(=O)N2CCN(CC(C)C)CC2)ccc1OCc1ccc(F)cc1 [Example 21, 1-[4-(4-fluorobenzyloxy)-3-isobutylbenzoyl]-4-isobutylpiperazine] | 100 | 5 |  |  |
| CC(C)Cc1cc(C(=O)N2CCN(CC(C)C)CC2)ccc1OCc1ccc(F)cc1.Cl [Example 22, 1-[4-(4-fluorobenzyloxy)-3-isobutylbenzoyl]-4-isobutylpiperazine hydrochloride] |  | 5 | 98 |  |
| CC(C)Cc1cc(C(=O)N2CCN(CC(C)C)CC2)ccc1OCc1ccc(F)c(F)c1.Cl [Example 23, 1-[4-(3,4-difluorobenzyloxy)-3-isobutylbenzoyl]-4-isobutylpiperazine hydrochloride] | 99 |  |  |  |
| CC(C)Cc1cc(C(=O)N2CCN(CC(C)C)CC2)ccc1OCc1ccc(F)cc1F.Cl [Example 24, 1-[4-(2,4-difluorobenzyloxy)-3-isobutylbenzoyl]-4-isobutylpiperazine hydrochloride] | 99 | 2 |  |  |
| CC(C)Cc1cc(C(=O)N2CCN(CC(C)C)CC2)ccc1OCc1ccc(F)cc1.O=C(O)C(=O)O [Example 25, 1-[4-(4-fluorobenzyloxy)-3-isobutylbenzoyl]-4-isobutylpiperazine oxalate] |  |  | 95 |  |
| CC(C)Cc1cc(C(=O)N2CCN(CC(C)C)CC2)ccc1OCc1ccc(F)c(F)c1 [Example 26, 1-[4-(3,4-difluorobenzyloxy)-3-isobutylbenzoyl]-4-isobutylpiperazine] |  |  | 99 |  |
| CC(C)Cc1cc(C(=O)N2CCN(CC(C)C)CC2)ccc1OCc1ccc(F)cc1F [Example 27, 1-[4-(2,4-difluorobenzyloxy)-3-isobutylbenzoyl]-4-isobutylpiperazine] |  |  | 99 |  |
